Experimental findings from article PMC10180490, “New Indazol-Pyrimidine-Based Derivatives as Selective Anticancer Agents: Design, Synthesis, and In Silico Studies” (Molecules, 2023) are described below.

The melting point is the temperature of the solid-liquid transition. As usually defined, the IC50 is the concentration that gives 50% inhibition. A lower IC50 goes with greater potency in that assay.

Data set [1] relates to lung cancer cells (A549). Kind of data set: MTT cytotoxicity assay, A549. It is filed as cell-based, human. The method, then: (§1) All of the synthesized compounds were screened for their cytotoxic effect against three different human cancer cells, namely breast cancer cells (MCF-7), lung cancer cells (A549), and colorectal adenocarcinoma cells (Caco2), using the MTT cytotoxic assay. […] Then, 3-[4,5-dimethylthiazol-2-yl]-2,5-diphenyl tetrazolium bromide (MTT) was added.
Background: Tetrazolium assays rely on reduction of a dye to a coloured formazan, in cell work by metabolically active cells.

Data set [2] relates to breast cancer cells (MCF-7). Description: MTT cytotoxicity assay, MCF-7. It is filed as cell-based. The following applies: Homo sapiens, MCF7, MCF-7 cells, 48 h. The method, then: as §1
Data set [3] relates to colorectal adenocarcinoma cells (Caco2). Description: MTT cytotoxicity assay, Caco2. It is filed as cell-based. To be noted: Homo sapiens, Caco-2, 48 h. The method, then:
as §1

The subject of data set [4] is MCF-7 cells. Kind of data set: Annexin-V/PI apoptosis assay. It is filed as cell-based, human. To be noted: MCF-7, 24 h; for Annexin V/PI quadrant, remaining (necrosis): Figure 3, quadrant not given, assigned by elimination; for average increment at the early phase of apoptosis / average increment in late-stage apoptosis: average for the treated groups; for percentage of Annexin V/PI-stained cells: both early and late phases of apoptosis, untreated 1.76%. The protocol:
To assess the apoptotic potential, MCF-7 cells were treated with compound 4i or 4f for 24 h and then assayed for Annexin-V/PI (propidium iodide) binding according to the reported protocol. […] At the early phase of apoptosis, the average increment for the treated groups was around 27%, while it was around 14% in late-stage apoptosis.
Apoptosis was measured using an Annexin V-FITC Apoptosis Detection Kit and analyzed using FACSCalibur flow cytometer.

The subject of data set [5] is MCF-7 cells. Description: Cell cycle analysis by DNA flow cytometry. It is filed as cell-based, human. To be noted: MCF-7, 24 h; for increase in the percentage of cells in the G0-G1 phase: compared with the control (53.89%). The protocol: An encouraging strategy for cancer therapy is targeting the cell cycle, according to the reported method. In this study, compounds 4i and 4f were tested—using a DNA flow cytometry assay—for their effects on the cell cycle of MCF-7 cells (Figure 2). […] Simultaneously, there was a significant reduction in the percentage of the cell population in the G2/M phase—32% and 46% for cells treated with compound 4f or 4i, respectively, compared with controls. The decline in the proportion of cells in the G2/M phase as well as the increase in the cell population in the G0-G1 and S phases indicate a reduction in cell cycle progression in MCF-7 cells.
(In general: A flow cytometer gives signals particle by particle.)

The test system of data set [6] is caspase-3/7 in MCF-7 cells. Description: Caspase-3/7 Green flow cytometry assay. The class given is cell-based, human. To be noted: untreated controls 0.43%. The method, then: Caspases are essential factors in apoptotic cell death since they play a key role in maintaining homeostasis, and their activation induces apoptosis.
Caspase-3/7 activity was calculated using Caspase-3/7 Green Flow Cytometry Assay Kit Catalog # C10427.

Data set [7] concerns mammary gland epithelial cell line MCF-10a. Description: Cytotoxicity toward normal cells MCF-10a. The class given is cell-based, human. To be noted: for SI (selectivity index): MCF-10a IC50 relative to MCF-7 IC50.
The nature of data set [8]: Cytotoxicity toward normal cells MCF-10a. The class given is cell-based, human. The following applies: human, MCF-10a mammary gland epithelial cells (normal), MCF-10a normal cell line.

`O=S(=O)(Nc1ncccn1)c1ccc(Nc2ncc(F)c(Nc3ccc4[nH]ncc4c3)n2)cc1` [Compound 4a, 4-((4-((1H-indazol-5-yl)amino)-5-fluoropyrimidin-2-yl)amino)-N-(pyrimidin-2-yl)benzenesulfonamide] gave a melting point of 343 to 345 °C. Besides, the IC50 in data set [1] (48 h) turned out to be 3.2 ± 0.18 µM. Besides, in data set [1] (Homo sapiens, A549, 48 h), half-maximal inhibition (IC50) was put at 3.3 µM. Further, the IC50 in [2] stood at 2.96 ± 0.14 µM. In addition, in [3], the IC50 was 10.3 ± 0.51 µM.
In turn, `O=S(=O)(Nc1nccs1)c1ccc(Nc2ncc(F)c(Nc3ccc4[nH]ncc4c3)n2)cc1` [Compound 4b, 4-((4-((1H-indazol-5-yl)amino)-5-fluoropyrimidin-2-yl)amino)-N-(thiazol-2-yl)benzenesulfonamide] gave a melting point of 285 to 287 °C. For the same molecule, the IC50 in data set [1] (Homo sapiens, A549, 48 h) is 52.9 ± 2.92 µM. In [2], the IC50 was found to be 14.3 ± 0.68 µM. For the same molecule, the IC50 in data set [3] amounted to 31.2 ± 1.55 µM.
As to `COc1cc(Nc2ncc(F)c(Nc3ccc4[nH]ncc4c3)n2)cc(OC)c1OC` [Compound 4c, 5-fluoro-N4-(1H-indazol-5-yl)-N2-(3,4,5-trimethoxyphenyl)pyrimidine-2,4-diamine], the melting point was in the range of 352 to 354 °C. Moreover, the IC50 in data set [1] (Homo sapiens, A549, 48 h) turned out to be 58.8 ± 3.25 µM. For the same molecule, in data set [2], half-maximal inhibition (IC50) required 29.1 ± 1.4 µM. In [3], the IC50 worked out at 67.8 ± 3.36 µM.
Take `NS(=O)(=O)c1cccc(Nc2ncc(F)c(Nc3ccc4[nH]ncc4c3)n2)c1` [Compound 4d, 3-((4-((1H-indazol-5-yl)amino)-5-fluoropyrimidin-2-yl)amino)benzenesulfonamide]: the melting point was in the range of 286 to 288 °C. Further, the IC50 in data set [1] (Homo sapiens, A549, 48 h) came out at 13.5 ± 0.74 µM. In data set [2], this molecule returned an IC50 of 4.8 ± 0.23 µM. For the same molecule, half-maximal inhibition in data set [3] (IC50) required 9.63 ± 0.48 µM.
The matching figures for `NS(=O)(=O)c1ccc(Nc2ncc(F)c(Nc3ccc4[nH]ncc4c3)n2)cc1` [Compound 4e, 4-((4-((1H-indazol-5-yl)amino)-5-fluoropyrimidin-2-yl)amino)benzenesulfonamide]: 303 to 305 °C, 46.6 ± 2.57 µM, 25.1 ± 1.2 µM and 7.17 ± 0.36 µM.
Regarding `Fc1cnc(Nc2ccc(N3CCOCC3)cc2)nc1Nc1ccc2[nH]ncc2c1` [Compound 4f, 5-fluoro-N4-(1H-indazol-5-yl)-N2-(4-morpholinophenyl) pyrimidine-2,4-diamine], the IC50 in [1] (Homo sapiens, A549, 48 h) was 12.8 ± 0.71 µM; in [2], 1.63 ± 0.08 µM; in data set [3], 22.3 ± 1.11 µM; in data set [8], 23.7 ± 1.17 µM. In addition, the “Annexin V/PI quadrant, remaining (necrosis)” value in data set [4] is reported as 3.23%. The “average increment at the early phase of apoptosis” value in data set [4] is reported as “around 27%”. In [4], the “average increment in late-stage apoptosis” value is given as “around 14%”. The “percentage of Annexin V/PI-stained cells” value in data set [4] is “about 47%”. Also, the “reduction in the percentage of the cell population in the G2/M phase” value in data set [5] (compared with controls) is reported as 32%. Also, the “increase in the percentage of cells in the G0-G1 phase” value in data set [5] is “around 7%”. The “levels of active caspase-3/7 expression” value in [6] amounted to 19%. In data set [7], the “SI (selectivity index)” value was 14.5.
In the case of `NS(=O)(=O)c1ccc(Nc2nccc(Nc3ccc4[nH]ncc4c3)n2)cc1` [Compound 4g, 4-((4-((1H-indazol-5-yl)amino)pyrimidin-2-yl)amino) benzenesulfonamide], the half-maximal inhibitory concentration (IC50) in [1] (Homo sapiens, A549, 48 h) came out at 11.2 ± 0.62 µM; in data set [2], 4.68 ± 0.22 µM; in [3], 6.91 ± 0.34 µM.
Take `O=S(=O)(Nc1nccs1)c1ccc(Nc2nccc(Nc3ccc4[nH]ncc4c3)n2)cc1` [Compound 4h, 4-((4-((1H-indazol-5-yl)amino)pyrimidin-2-yl)amino)-N-(thiazol-2-yl)benzenesulfonamide]: the melting point lay in the range of 211 to 213 °C. In [1] (Homo sapiens, A549, 48 h), the half-maximal inhibitory concentration (IC50) amounted to 23.5 ± 1.3 µM. Also, the IC50 in data set [2] is 21.1 ± 1.01 µM. The same molecule displayed an IC50 in data set [3] of 17.3 ± 0.86 µM.
With `COc1cc(Nc2nccc(Nc3ccc4[nH]ncc4c3)n2)cc(OC)c1OC` [Compound 4i, N4-(1H-indazol-5-yl)-N2-(3,4,5-trimethoxyphenyl) pyrimidine-2,4-diamine], the IC50 in data set [1] (Homo sapiens, A549, 48 h) came out at 2.31 ± 0.13 µM; in data set [2], 1.84 ± 0.09 µM; in data set [3], 4.99 ± 0.25 µM; in [7] (MCF-10a normal cell line) it was 29.5 ± 1.46 µM; in data set [8] it was 29.5 µM. For the same molecule, the “Annexin V/PI quadrant, remaining (necrosis)” value in [4] is on record as 5.92%. Moreover, the “average increment at the early phase of apoptosis” value in data set [4] was “around 27%”. The “average increment in late-stage apoptosis” value in data set [4] is on record as “around 14%”. Further, in data set [4], the “percentage of Annexin V/PI-stained cells” value is on record as “about 47%”. Moreover, the “increase in the percentage of the cell population in the S phase” value in data set [5] (compared with control) was 3%. The “increase in the percentage of cells in the G0-G1 phase” value in data set [5] is “around 7%”. Besides, in data set [6], the “levels of active caspase-3/7 expression” value is given as 26.5%. Moreover, in data set [7], the “SI (selectivity index)” value is 16.03.
